Experimental data as given in publication PMC4122495, “Small Molecule Deubiquitinase Inhibitors Promote Macrophage Anti-Infective Capacity” (PLoS ONE, 2014).

What was measured:
L. monocytogenes = L. monocytogenes intracellular growth assay in RAW264.7 macrophages; type: cell-based, Listeria monocytogenes 10403S; design: decrease in Listeria intracellular viability: concentration or dose not given beside the values
Experimental: RAW264.7 cells were cultured at an initial density of 4×10^6 cells per 24-well plate and allowed to adhere overnight. Macrophages were treated with 2.5 or 5 µM of DUB inhibitors dissolved in dimethyl sulfoxide (DMSO) for 0.5 or 1 h or with equivalent volume of DMSO (vehicle control) at 37°C. For dose-response curves, macrophages were incubated with 5, 2.5, 1 and 0.5 µM of compounds 1, 3 and 4 or 2.5, 2, 1 and 0.5 µM of compounds 2 and 9 for 0.5 h or 1 h at 37°C. DUB inhibitors were removed from cell culture prior to infection by changing the medium. Macrophages were infected with L. monocytogenes at a multiplicity of infection (MOI) of 1 for 0.5 h at 37°C. The inoculum was removed by washing infected cells three times with Dulbecco’s phosphate-buffered saline (PBS), and the cells were incubated in medium containing 10 µg/ml of gentamicin to kill extracellular bacteria for the duration of the experiment. At 8 h post-infection, cells were lysed in 1 ml 0.1% Triton X-100, serially diluted and plated on Luria-Bertani (LB) agar to enumerate the number of colony forming units (CFU). CFU were counted using the Acolyte SuperCount (Microbiology International, Frederick, MD) plate reader and software. Results were normalized to DMSO-treated cells.
Supplementary file pone.0104096.s001.tif: Figure S1 Dose-response curves for selected compounds. RAW264.7 cells were incubated with DMSO (equivalent volume) or the varying concentrations of WP1130-derivatives for 0.5 h (compounds 1, 2, 4 and 9) or 1 h (compound 3). After incubation, the medium was removed, and cells were infected at 37°C for 0.5 h at an MOI of 1 with L. monocytogenes in the absence of additional drugs. Following the 0.5 h infection, cells were washed and gentamycin (10 µg/ml) was added to kill extracellular bacteria. Intracellular bacteria were enumerated at 8 h post-infection. The data represent percent of Listeria intracellular growth compared to DMSO-treated cells from three independent experiments performed in triplicate. Non-linear regression curves were performed using the GraphPad Prism software. (TIF) Click here for additional data file.

USP9x = tested on: USP9x; design: method as in Donato, N. J., manuscript in preparation; conditions: cell-based assay; ref Donato, N. J., manuscript in preparation; read-out: IC50 against USP9x; cited from earlier work
HG23 cells = assay: WST-1 cell viability assay in HG23 replicon cells; type: cell-based, human; conditions: 2.5 µM for 2 h, then 22 h
Experimental: For cell viability assays in conditions that mimicked the viral infections, RAW264.7 cells were cultured as described above and treated for 0.5 h with 5 µM WP1130 or 2.5 µM compound 9, incubated for 1 h on ice, washed three times with ice-cold PBS and incubated for an additional 8 h in presence of DMSO and WP1130 only. One and a half hours prior to the end of the experiment, the WST-1 reagent was diluted 1 in 10 in the media. For cell viability in HG23 replicon cells, DMSO and WP1130 remained on the cells for 24 h before incubation with the WST-1 reagent, whereas compound 9 was removed after a 2 h exposure and the WST-1 reagent added after an additional 22 h.

CCCC(NC(=O)/C(C#N)=C/c1nc(Cl)ccc1Cl)c1ccc(OCCN2CCOCC2)cc1 (centres unmarked) [Compound 9]
EC50 (L. monocytogenes; Listeria monocytogenes, RAW264.7 pre-treated with varying concentrations, then infected (MOI 1), intracellular CFU at 8 h post-infection, non-linear regression): 1.92 µM
decrease in Listeria intracellular viability (L. monocytogenes; RAW264.7 pre-treated at each compound's working condition (Fig. 2B, 5B), 8 h post-infection, vs DMSO): 66.1%
Decrease intracellular listeria viability (%) (L. monocytogenes; conditions of Figure 2B and Figure 5B, maximal effective drug concentration used, 8 h post-infection, vs DMSO): 66.1%
IC50 (USP9x): 1.8 µM
toxicity (WST-1 viability) (HG23 cells): no toxicity
